Source: the NIST ThermoML archive (doi:10.1021/je900789j)

Conditions: 101.33 kPa, Liquid; for electrical conductivity: Alternating current cell with electrodes; for mass density: Vibrating tube method

CCCCCCn1cc[n+](C)c1.F[B-](F)(F)F [1-hexyl-3-methylimidazolium tetrafluoroborate]
Conditions	electrical conductivity [S/m]	mass density [kg/m3]
238.05 K	0.000405	–
248.05 K	0.00169	–
258.05 K	0.00544	–
268.1 K	0.0145	–
278.1 K	0.0332	1159.81
288.15 K	0.0672	1153.14
298.15 K	0.1229	1146.18
308.15 K	0.207	1139.15
318.15 K	0.326	1132.31
328.15 K	0.483	1125.18
338.15 K	0.683	1118.54
348.15 K	0.926	–
358.15 K	1.214	–
368.15 K	1.545	–
378.15 K	1.92	–
388.15 K	2.33	–
398.15 K	2.78	–
408.15 K	3.26	–
418.15 K	3.77	–
428.15 K	4.31	–
438.15 K	4.88	–
448.15 K	5.46	–
458.15 K	6.07	–
468.15 K	6.69	–

CCCCn1cc[n+](C)c1.F[B-](F)(F)F [1-butyl-3-methylimidazolium tetrafluoroborate]
Conditions	electrical conductivity [S/m]	mass density [kg/m3]
238.05 K	0.00212	–
248.05 K	0.00778	–
258.05 K	0.0225	–
268.1 K	0.0542	–
278.1 K	0.1132	1215.43
288.15 K	0.211	1209.33
298.15 K	0.352	1202.08
308.15 K	0.556	1194.78
318.15 K	0.821	1187.79
328.15 K	1.15	1180.62
338.15 K	1.545	1173.51
348.15 K	2	–
358.15 K	2.52	–
368.15 K	3.1	–
378.15 K	3.73	–
388.15 K	4.41	–
398.15 K	5.13	–
408.15 K	5.88	–
418.15 K	6.64	–
428.15 K	7.45	–
438.15 K	8.29	–
448.15 K	9.15	–
458.15 K	10.04	–
468.15 K	10.9	–

CCCCCCCC[n+]1ccn(C)c1.F[B-](F)(F)F [1-methyl-3-octylimidazolium tetrafluoroborate]
Conditions	electrical conductivity [S/m]	mass density [kg/m3]
238.05 K	0.0001524	–
248.05 K	0.00065	–
258.05 K	0.00218	–
268.1 K	0.00605	–
278.1 K	0.01441	1116.79
288.15 K	0.0304	1110.36
298.15 K	0.0579	1103.6
308.15 K	0.1012	1096.82
318.15 K	0.1647	1090.04
328.15 K	0.252	1083.22
338.15 K	0.368	1076.46
348.15 K	0.512	–
358.15 K	0.688	–
368.15 K	0.895	–
378.15 K	1.134	–
388.15 K	1.403	–
398.15 K	1.701	–
408.15 K	2.03	–
418.15 K	2.38	–
428.15 K	2.75	–
438.15 K	3.15	–
448.15 K	3.56	–
458.15 K	3.99	–
468.15 K	4.44	–

CCn1cc[n+](C)c1.F[B-](F)(F)F [1-ethyl-3-methylimidazolium tetrafluoroborate]
Conditions	electrical conductivity [S/m]	mass density [kg/m3]
248.05 K	0.106	–
258.05 K	0.228	–
268.1 K	0.423	–
278.1 K	0.703	1293.75
288.15 K	1.08	1288.03
298.15 K	1.546	1280.07
308.15 K	2.11	1272.48
318.15 K	2.77	1265.12
328.15 K	3.51	1256.89
338.15 K	4.34	1250.24
348.15 K	5.23	–
358.15 K	6.2	–
368.15 K	7.22	–
378.15 K	8.29	–
388.15 K	9.41	–
398.15 K	10.6	–
408.15 K	11.8	–
418.15 K	13	–
428.15 K	14.22	–
438.15 K	15.48	–
448.15 K	16.8	–
458.15 K	18.03	–
468.15 K	19.3	–
